What was measured:
adenosine A1 receptor = target: T1, adenosine A1 receptor (Rattus norvegicus, UniProt P25099); assay: Adenosine Receptor Binding, A1 Receptor Affinity (RBA1), [3H]-CHA; details: rat brain membranes, 1.0 nM [3H]-CHA
T1 construct: Whole brain minus cerebellum and brainstem from male Long Evans rats; from tissue; host or cells: whole brain minus cerebellum and brainstem, male Long Evans rats, membranes
T1 sequence (P25099 1-326): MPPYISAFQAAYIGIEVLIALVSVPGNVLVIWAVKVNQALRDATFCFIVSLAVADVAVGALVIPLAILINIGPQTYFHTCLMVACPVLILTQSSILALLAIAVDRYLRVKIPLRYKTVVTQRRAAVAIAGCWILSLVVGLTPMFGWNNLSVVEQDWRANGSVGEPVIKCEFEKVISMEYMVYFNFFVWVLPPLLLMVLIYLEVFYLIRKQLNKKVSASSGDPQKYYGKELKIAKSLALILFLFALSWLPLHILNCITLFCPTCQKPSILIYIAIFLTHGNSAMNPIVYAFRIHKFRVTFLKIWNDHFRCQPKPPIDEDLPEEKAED
Protocol: Whole brain minus cerebellum and brainstem from male Long Evans rats (150-200 g) was homogenized in 30 volumes of ice-cold 0.05M Tris-HCl buffer pH 7.7 using a Brinkman Polytron PT-10, (setting number 6 for 20 seconds) and centrifuged for ten minutes at 20,000 × g (Sorvall RC-2), 4° C. The supernatant was discarded, and the pellet was resuspended and centrifuged as before. The pellet was resuspended in 20 ml Tris-HCl buffer containing two International Units/ml of adenosine deaminase (Sigma type III from calf intestinal mucosa), incubated at 37° C. for 30 minutes, then subsequently at 0° C. for ten minutes. […]
Tissue homogenate (10 mg/ml) was incubated in 0.05M Tris-HCl buffer pH 7.7 containing 1.0 nM [^3 H]-N^6 -cyclohexyladenosine (^3 H]-CHA) with or without test agents in triplicate for one hour at 25° C. […] The radio-labeled ligand retained on the filter was measured by liquid scintillation spectrophotometry after shaking the filters for one hour or longer on a mechanical shaker in 10 ml of Beckman Ready-Solv HP scintillation cocktail.
Nonspecific binding was defined as the binding which occurred in the presence of 1 mM theophylline. […] The Scatchard plot was calculated by linear regression of the line obtained by plotting the amount of radioligand bound (pmoles/gram of tissue) versus [formula] […] The maximal number of binding sites (Bmax) was calculated from the Scatchard plot.

adenosine A2 receptor = target: T2, adenosine A2 receptor (Rattus norvegicus, UniProt P30543); assay: Adenosine Receptor Binding, A2 Receptor Affinity (RBA2), [3H]NECA, rat striatal membranes; details: 4 nM [3H]NECA, 50 nM N6-cyclopentyladenosine
T2 construct: 5 mg original tissue weight of rat weight of rat striatal membranes; tissue Pel-Freez (Rogers, Arkansas); host or cells: rat brain striatum membranes (Sprague-Dawley; Long-Evans hooded rats gave essentially identical results)
T2 sequence (P30543 whole entry): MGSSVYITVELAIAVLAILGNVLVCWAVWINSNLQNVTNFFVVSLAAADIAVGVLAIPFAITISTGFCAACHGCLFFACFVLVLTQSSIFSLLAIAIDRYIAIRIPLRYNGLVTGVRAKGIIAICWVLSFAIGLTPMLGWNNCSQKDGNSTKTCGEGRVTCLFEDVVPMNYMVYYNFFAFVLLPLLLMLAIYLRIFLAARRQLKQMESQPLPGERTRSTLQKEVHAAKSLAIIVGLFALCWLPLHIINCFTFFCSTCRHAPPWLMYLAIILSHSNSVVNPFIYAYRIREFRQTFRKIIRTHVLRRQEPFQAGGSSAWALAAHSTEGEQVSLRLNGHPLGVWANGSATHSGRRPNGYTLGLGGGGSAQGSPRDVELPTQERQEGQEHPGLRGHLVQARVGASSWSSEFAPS
Protocol: Brains from 200-500 g mixed sex Sprague-Dawley rats were purchased from Pel-Freez (Rogers, Arkansas). Fresh brains from male Long-Evans hooded rats (Blue Spruce Farms, Altamont, NY) gave essentially identical results. Brains were thawed and then kept on ice while the striata were dissected out. Striata were disrupted in 10 vol of ice-cold 50 mM Tris.HCl (pH 7.7 at 25° C., pH 8.26 at 5° C.) (Tris) for 30 seconds in a Polytron PT-10 (Brinkmann) at setting 5. The suspension was centrifuged at 50,000 xg for ten minutes, the supernatant discarded, the pellet resuspended in 10 vol ice-cold Tris as above, recentrifuged, resuspended at 1 g/5 ml, and stored in plastic vials at -70° C. (stable for at least six months). When needed, tissue was thawed at room temperature, disrupted in a Polytron, and kept on ice until used. […]
Incubations were terminated by filtration through 2.4 cm GF/B filters under reduced pressure. […] Filters were put in scintillation vials, 8 ml of Formula 947 scintillation fluid added, and the vials left overnight, shaken, and counted in a liquid scintillation counter at 40% efficiency.
Nonspecific binding was defined as binding in the presence of 100 μM N^6 -cyclopentyladenosine, and specific binding was defined as total binding minus nonspecific binding. The IC50 was calculated by weighted nonlinear least squares curve-fitting to the mass-action equation. […]

Q: For C[C@H](O)CNc1ncnc2c1ncn2[C@@H]1O[C@H](CO)[C@@H](O)[C@H]1O [N^6-[(S)-2-hydroxypropyl]adenosine, N^6-[(S)-2-Hydroxypropyl]adenosine], which IC50 (adenosine A1 receptor) is on record?
A: 0.006 µM

Q: And the IC50 (adenosine A2 receptor)?
A: 14 µM
